The values that follow come from the supplement of paper PMC11061612.

What all share (assay): combination Emax (second highest fraction inhibited in the dose matrix, 72 h); higher = more inhibition; extreme values may be limits of the assay
The test system of assay [1] is OCI-M1 (Acute Myeloid Leukemia). An outline of the steps:
(§1)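 After 24 hours at 37°C and 5% CO2 in 1536-well plates, cells in DMEM/F12 or RPMI plus 10% FBS received two-drug dose matrices for 72 hours. Viability came from CellTiter-Glo 2.0 luminescence and was scaled as inhibition, anchored at 0 by vehicle wells and at 1 by blank wells. Combination Emax is taken as the second-highest inhibition in the matrix, and Bliss excess as the observed combination effect less EA + EB − EA·EB, with EA and EB the single-agent effects.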

A further assay relates to GCIY (Gastric Carcinoma). The procedure, abridged: as §1
Assay [2] has as its system NTERA-2-cl-D1 (Other Solid Carcinomas). An outline of the steps:
as §1

In assay [3] the test system is ATN-1 (T-Lymphoblastic Leukemia). The procedure, abridged:
as §1

For assay [4], the system named is JJN-3 (Plasma Cell Myeloma). The procedure, abridged: as §1
Assay [5] relates to NCI-H1975 (Lung Adenocarcinoma). The procedure, abridged: as §1
In assay [6] the test system is TK (B-Cell Non-Hodgkin's Lymphoma). An outline of the steps:
as §1

Assay [7] deals with MDA-MB-175-VII (Breast Carcinoma). The procedure, abridged: as §1
Assay [8] deals with JURL-MK1 (Chronic Myelogenous Leukemia). An outline of the steps:
as §1

For assay [9], the system named is NCI-H2023 (Non-Small Cell Lung Carcinoma). An outline of the steps:
as §1

For assay [10], the system named is C2BBe1 (Colorectal Carcinoma). An outline of the steps: as §1
For the next assay, the system named is C32 (Melanoma). The procedure, abridged: as §1
The test system of assay [11] is L-363 (Plasma Cell Myeloma). The procedure, abridged: as §1
The subject of assay [12] is HT-3 (Cervical Carcinoma). The procedure, abridged: as §1
Assay [13] deals with NCI-H1048 (Small Cell Lung Carcinoma). The procedure, abridged:
as §1

Assay [14] concerns IGROV-1 (Ovarian Carcinoma). An outline of the steps: as §1
Assay [15] deals with NCI-H2009 (Lung Adenocarcinoma). An outline of the steps: as §1
A further assay has as its system DK-MG (Glioblastoma). An outline of the steps:
as §1

The test system of assay [16] is RS4-11 (B-Lymphoblastic Leukemia). An outline of the steps: as §1
Assay [17] has as its system MRK-nu-1 (Breast Carcinoma). The procedure, abridged: as §1

Regarding `COc1cccc(OCCCN)c1-c1cc(Nc2cnc(C#N)cn2)n[nH]1` [Prexasertib] + CCc1c2c(nc3ccc(O)cc13)-c1cc3c(c(=O)n1C2)COC(=O)[C@]3(O)CC [SN-38] (first compound max 1 µM, 7x7, partner max 0.3 µM), the “combination Emax” value in assay [1] came to 1; with GCIY (Gastric Carcinoma), 0.929; in assay [2] it was 0.981; in assay [3] it was 0.999; in assay [4], 0.981; in assay [5] it was 0.861. In addition, the “combination Emax” value is 1 in [6]; 0.547 in [7]; 1 in assay [8]; 0.783 in assay [9]; 0.708 in assay [10]; 0.714 in the assay with C32 (Melanoma). Further, the “combination Emax” value in assay [11] was 1; in assay [12], 0.933; in assay [13] it was 1; in assay [14] it was 0.863; in [15], 0.886; with DK-MG (Glioblastoma), 0.295. Besides, the entries for the “combination Emax” value in [16] and in [17] were 1 and 0.84, respectively.
Regarding `NC1(C(=O)N[C@@H](CCO)c2ccc(Cl)cc2)CCN(c2ncnc3[nH]ccc23)CC1` [Capivasertib] + CCN(CCO)CCCOc1ccc2c(Nc3cc(CC(=O)Nc4cccc(F)c4)[nH]n3)ncnc2c1 [AZD2811] (first compound max 10 µM, 7x7, partner max 1 µM), the “combination Emax” value in assay [1] stood at 0.619; with GCIY (Gastric Carcinoma), 0.504; in assay [2] it was 0.481; in assay [3], 0.86; in assay [4], 0.376; in assay [5], 0.611. Also, the “combination Emax” value in assay [6] turned out to be 0.231; in assay [7], 0.683; in [8] it was 0.596; in assay [9] it was 0.412; in assay [10], 0.301; in the assay on C32 (Melanoma) it was 0.54. For the same molecule, the “combination Emax” value in assay [11] amounted to 0.549; in assay [12] it was 0.104; in assay [13], 0.784; in [14] it was 0.76; in assay [15] it was 0.386; in the assay on DK-MG (Glioblastoma), 0.484. Moreover, the entries for the “combination Emax” value in [16] and in assay [17] were 0.96 and 0.742, respectively.
